Measurements as given in US10045940B2, “Composition comprising an antibiotic and a corticosteroid” (Intervet Inc., priority 2008, dated 2018).

Test: Storage stability of the formulation of Table 1 (prior formulation without fatty acid)
Assay type: physicochemical
Conditions: in the formulation of Table 1
Method: Applicants have observed an increase in at least one mometasone degradation product over time when the above formulation is stored at room temperature. […] The formation of the degradation product generally can be minimized by storing the formulation at colder temperatures (e.g., 5° C.). There is, however, a need for a formulation that can remain stable at greater temperatures (e.g., room temperature). This invention provides such a formulation.

Q: With C[C@@H]1CN(c2c(F)c(F)c3c(=O)c(C(=O)O)cn(C4CC4)c3c2F)C[C@H](C)N1 [orbifloxacin] as the compound, how does the “Effect of the orbifloxacin in the formulation on formation of the mometasone degradation product” value read?
A: accelerates the formation of the degradation product
